Assays:
MLKL [1] = biological target: T1, MLKL (Homo sapiens, UniProt Q8NB16); test: MLKL degradation assay in HepG2 cell line (western blot); format: cell-based; set-up: endogenous in cells; host or cells: HepG2 or HaCaT; settings: cell line not given; for Degradation assay (Degradation %) 1 μM: compound 1 μM; for Degradation assay (Degradation %) 10 μM: compound 10 μM
T1 sequence (Q8NB16 1-471): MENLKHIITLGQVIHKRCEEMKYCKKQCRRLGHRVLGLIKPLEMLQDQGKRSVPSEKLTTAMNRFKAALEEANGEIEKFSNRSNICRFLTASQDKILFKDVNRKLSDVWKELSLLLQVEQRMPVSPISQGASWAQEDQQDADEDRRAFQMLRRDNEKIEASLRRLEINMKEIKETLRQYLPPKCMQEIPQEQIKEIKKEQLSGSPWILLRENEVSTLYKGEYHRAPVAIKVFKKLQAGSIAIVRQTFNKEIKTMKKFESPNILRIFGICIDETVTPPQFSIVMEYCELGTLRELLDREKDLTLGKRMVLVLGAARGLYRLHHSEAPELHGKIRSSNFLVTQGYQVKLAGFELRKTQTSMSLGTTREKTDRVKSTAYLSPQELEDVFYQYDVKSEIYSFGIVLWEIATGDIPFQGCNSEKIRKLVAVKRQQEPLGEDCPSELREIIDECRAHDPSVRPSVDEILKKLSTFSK
In short: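 Cells seeded, next day medium swapped for compound-containing medium (final 1 or 10 μM) and incubated 20-24 h at 37 °C. Lysates in RIPA with protease/phosphatase inhibitors were protein-matched by BCA, run on SDS-PAGE and immunoblotted for MLKL.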

FADD−/− Jurkat cells = test: Necroptosis inhibition assay, TNF-α-induced necroptosis (CellTiter-Glo 2.0); format: cell-based, human; settings: TNF-α 15 ng/mL; for Necroptosis inhibition assay (Rescue %) 1 μM: compound 1 μM; for Necroptosis inhibition assay (Rescue %) 10 μM: compound 10 μM
In short: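 Luminescent ATP measurement gave viability, from which cytotoxicity and necroptosis inhibition rate were derived. Before that, cells (5.0×10^5 cells/mL) saw compound at 0.1, 1 or 10 μM final for 30 minutes at room temperature, then TNF-α (15 ng/mL final) for 20 to 24 hours at 37° C.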

MLKL [2] = biological target: T1, MLKL; test: Measurement of binding affinity with MLKL receptor (competitive binding assay, Kd); set-up: made in house; host or cells: HEK 293 cell line (T7 phage in E. coli BL21-derived host is also described)
In short: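 HEK 293-expressed, DNA-tagged MLKL; ligand beads blocked with biotin and SeaBlock/1% BSA/0.05% Tween 20/1 mM DTT buffer. Cpd from 111× DMSO stock, 0.9% DMSO final. Eluted kinase by qPCR → Kd.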

| Compound | Degradation assay (Degradation %) 1 μM (MLKL [1]) [%] | Degradation assay (Degradation %) 10 μM (MLKL [1]) [%] | Necroptosis inhibition assay (Rescue %) 1 μM (FADD−/− Jurkat cells) [%] | Necroptosis inhibition assay (Rescue %) 10 μM (FADD−/− Jurkat cells) [%] | Kd (MLKL [2]) [nM] | Necroptosis inhibition assay (Rescue %) 1 μM (FADD−/− Jurkat cells; FADD−/− Jurkat cells) [%] | Necroptosis inhibition assay (Rescue %) 10 μM (FADD−/− Jurkat cells; FADD−/− Jurkat cells) [%] |
| --- | --- | --- | --- | --- | --- | --- | --- |
| Nc1ncc(-c2cnn(C3CCN(C(=O)C4CCN(C(=O)C5CCN(c6ccc7c(c6)C(=O)N(C6CCC(=O)NC6=O)C7=O)CC5)CC4)CC3)c2)nc1C(=O)OC(C(=O)Nc1ccc(F)cc1)c1ccccc1 (stereo not shown) [TDH-274, 2-((4-fluorophenyl)amino)-2-oxo-1-phenylethyl 3-amino-6-(1-(1-(1-(1-(2-(2,6-dioxopiperidin-3-yl)-1,3-dioxoisoindolin-5-yl)piperidine-4-carbonyl)piperidine-4-carbonyl)piperidin-4-yl)-1H-pyrazol-4-yl)pyrazine-2-carboxylate] | 56.81 | 38.77 | 77.01 | 57.62 | 5.2 | – | – |
| Nc1ncc(-c2cnn(C3CCN(C4CC5(CCN(CC6CCN(C(=O)c7ccc(C(=O)NC8CCC(=O)NC8=O)cc7)CC6)CC5)C4)CC3)c2)nc1C(=O)O[C@@H](C(=O)Nc1ccc(F)cc1)c1ccccc1 (stereo partly drawn) [TDH-537, (R)-2-((4-fluorophenyl)amino)-2-oxo-1-phenylethyl 3-amino-6-(1-(1-(7-((1-(4-((2,6-dioxopiperidin-3-yl)carbamoyl)benzoyl)piperidin-4-yl)methyl)-7-azaspiro[3.5]nonan-2-yl)piperidin-4-yl)-1H-pyrazol-4-yl)pyrazine-2-carboxylate] | 64.82 | 86.14 | – | – | 0.61 | 32.07 | 30.76 |
| Nc1ncc(-c2cnn(C3CCN(C(=O)CC4CCN(C(=O)C5CCN(c6ccc7nnn(C8CCC(=O)NC8=O)c(=O)c7c6)CC5)CC4)CC3)c2)nc1C(=O)O[C@@H](C(=O)Nc1ccc(F)cc1)c1ccccc1 (stereo partly drawn) [TDH-407, (R)-2-((4-fluorophenyl)amino)-2-oxo-1-phenylethyl 3-amino-6-(1-(1-(2-(1-(1-(3-(2,6-dioxopiperidin-3-yl)-4-oxo-3,4-dihydrobenzo[d][1,2,3]triazin-6-yl)piperidine-4-carbonyl)piperidin-4-yl)acetyl)piperidin-4-yl)-1H-pyrazol-4-yl)pyrazine-2-carboxylate] | 83.70 | 79.77 | – | – | 7.5 | 52.02 | 42.95 |
| Nc1ncc(-c2cnn(C3CCN(CCOCCOCCNC(=O)COc4cccc5c4C(=O)N(C4CCC(=O)NC4=O)C5=O)CC3)c2)nc1C(=O)O[C@@H](C(=O)Nc1ccc(F)cc1)c1ccccc1 (stereo partly drawn) [TDH-135, (R)-2-((4-fluorophenyl)amino)-2-oxo-1-phenylethyl 3-amino-6-(1-(1-(2-(2-(2-(2-((2-(2,6-dioxopiperidin-3-yl)-1,3-dioxoisoindolin-4-yl)oxy)acetamido)ethoxy)ethoxy)ethyl)piperidin-4-yl)-1H-pyrazol-4-yl)pyrazine-2-carboxylate] | 23.45 | 57.93 | 46.82 | 33.77 | 0.91 | – | – |
| COc1ccc(C(=O)N2CCC3(CC2)CC(N2CCC(CCN4CCC(n5cc(-c6cnc(N)c(C(=O)O[C@@H](C(=O)Nc7ccc(F)cc7)c7ccccc7)n6)cn5)CC4)CC2)C3)cc1N1CCC(=O)NC1=O [TDH-504, (R)-2-((4-fluorophenyl)amino)-2-oxo-1-phenylethyl 3-amino-6-(1-(1-(2-(1-(7-(3-(2,4-dioxotetrahydropyrimidin-1(2H)-yl)-4-methoxybenzoyl)-7-azaspiro[3.5]nonan-2-yl)piperidin-4-yl)ethyl)piperidin-4-yl)-1H-pyrazol-4-yl)pyrazine-2-carboxylate] | 93.87 | 94.41 | – | – | 0.23 | 94.61 | 33.71 |
| Nc1ncc(-c2cnn(C3CCN(CCCCCCCCCCNC(=O)C4CCN(c5cccc6c5C(=O)N(C5CCC(=O)NC5=O)C6=O)CC4)CC3)c2)nc1C(=O)O[C@@H](C(=O)Nc1ccc(F)cc1)c1ccccc1 (stereo partly drawn) [TDH-156, (R)-2-((4-fluorophenyl)amino)-2-oxo-1-phenylethyl 3-amino-6-(1-(1-(10-(1-(2-(2,6-dioxopiperidin-3-yl)-1,3-dioxoisoindolin-4-yl)piperidine-4-carboxamido)decyl)piperidin-4-yl)-1H-pyrazol-4-yl)pyrazine-2-carboxylate] | 31.35 | 18.75 | 19.9 | 21.77 | 53 | – | – |
| Nc1ncc(-c2cnn(C3CCN(CCOC4CCN(C(=O)c5ccc6c(c5)CN(C5CCC(=O)NC5=O)C6=O)CC4)CC3)c2)nc1C(=O)O[C@@H](C(=O)Nc1ccc(F)cc1)c1ccccc1 (stereo partly drawn) [TDH-549, (R)-2-((4-fluorophenyl)amino)-2-oxo-1-phenylethyl 3-amino-6-(1-(1-(2-((1-(2-(2,6-dioxopiperidin-3-yl)-1-oxoisoindoline-5-carbonyl)piperidin-4-yl)oxy)ethyl)piperidin-4-yl)-1H-pyrazol-4-yl)pyrazine-2-carboxylate] | 84.54 | 34.92 | – | – | 0.64 | 35.84 | 25.21 |
| Nc1ncc(-c2cnn(C3CCN(C(=O)CC4CCN(c5ccc6c(c5)C(=O)N(C5CCC(=O)NC5=O)C6=O)CC4)CC3)c2)nc1C(=O)O[C@@H](C(=O)Nc1ccc(F)cc1)c1ccccc1 (stereo partly drawn) [TDH-344, (R)-2-((4-fluorophenyl)amino)-2-oxo-1-phenylethyl 3-amino-6-(1-(1-(2-(1-(2-(2,6-dioxopiperidin-3-yl)-1,3-dioxoisoindolin-5-yl)piperidin-4-yl)acetyl)piperidin-4-yl)-1H-pyrazol-4-yl)pyrazine-2-carboxylate] | 64.15 | 47.75 | 14.48 | 17.63 | 13 | – | – |
| Nc1ncc(-c2cnn(C3CCN(CC4CCN(C(=O)C5CCN(c6ccc7nnn(C8CCC(=O)NC8=O)c(=O)c7c6)CC5)CC4)CC3)c2)nc1C(=O)O[C@@H](C(=O)Nc1ccc(F)cc1)c1ccccc1 (stereo partly drawn) [TDH-151, (R)-2-((4-fluorophenyl)amino)-2-oxo-1-phenylethyl 3-amino-6-(1-(1-((1-(1-(3-(2,6-dioxopiperidin-3-yl)-4-oxo-3,4-dihydrobenzo[d][1,2,3]triazin-6-yl)piperidine-4-carbonyl)piperidin-4-yl)methyl)piperidin-4-yl)-1H-pyrazol-4-yl)pyrazine-2-carboxylate] | 84.58 | 77.74 | 85.85 | 60.12 | 12 | – | – |
| Nc1ncc(-c2cnn(C3CCN(CCOCCOCCOCCNC(=O)C4CCN(c5ccc6c(c5)C(=O)N(C5CCC(=O)NC5=O)C6=O)CC4)CC3)c2)nc1C(=O)O[C@@H](C(=O)Nc1ccc(F)cc1)c1ccccc1 (stereo partly drawn) [TDH-140, (R)-2-((4-fluorophenyl)amino)-2-oxo-1-phenylethyl 3-amino-6-(1-(1-(1-(1-(2-(2,6-dioxopiperidin-3-yl)-1,3-dioxoisoindolin-5-yl)piperidin-4-yl)-1-oxo-5,8,11-trioxa-2-azatridecan-13-yl)piperidin-4-yl)-1H-pyrazol-4-yl)pyrazine-2-carboxylate] | 41.81 | 83.53 | 21.32 | 81.41 | 9.2 | – | – |
| Nc1ncc(-c2cnn(C3CCN(CCCN4CCN(C(=O)COc5ccc6c(c5)C(=O)N(C5CCC(=O)NC5=O)C6=O)CC4)CC3)c2)nc1C(=O)O[C@@H](C(=O)Nc1ccc(F)cc1)c1ccccc1Cl (stereo partly drawn) [TDH-494, (R)-1-(2-chlorophenyl)-2-((4-fluorophenyl)amino)-2-oxoethyl 3-amino-6-(1-(1-(3-(4-(2-((2-(2,6-dioxopiperidin-3-yl)-1,3-dioxoisoindolin-5-yl)oxy)acetyl)piperazin-1-yl)propyl)piperidin-4-yl)-1H-pyrazol-4-yl)pyrazine-2-carboxylate] | 80.66 | 88.82 | – | – | 0.98 | 43.07 | −7.06 |
